EP0906096B1, “USE OF HYDROXYPROLINES FOR THE MANUFACTURE OF A MEDICAMENT FOR INHIBITING LEUKOCYTE INVASION OF TISSUES” (Chephasaar Chem.-Pharm. Fabrik GmbH, priority 1996, dated 1997)

What was measured:
[1] = test system: eosinophiles Lungeninfiltrat; test: Acute allergic inflammation: protein-induced eosinophilic lung infiltrate in sensitised guinea pigs; type: in vivo, Meerschweinchen
Text: In Modellen der akuten allergischen Entzündung, wie z.

[2] = test system: ischämisch traumatisiertes Gefäßendothel; test: Post-ischaemia model (Nolte et al. 1995), leukocyte adherence in postcapillary venules; type: in vivo, Hamster; conditions: 50 mg/kg given 10 min before reperfusion; effect present after 0,5 and 2 hours; in all animals
Procedure: In dem von Nolte et al., Int. J. Microcirc. 15 (suppl 1) (1995), 9 - 16 beschriebenen Postischämiemodell beim Hamster zeigte sich, dass N-Acetylhydroxyprolin (Oxazeprol) bei Dosierungen von 50 mg/kg kurz yor Reperfusion (10 min) gegeben, die Adhäsion der Leukozyten am ischämisch traumatisierten Gefäßendothel um ca. 50 % reduzierte. Dieser Effekt war nach 0,5 und 2 Stunden vorhanden (Abb. 3). Er trat in allen untersuchten Tieren auf. Oxazeprol verhielt sich damit ähnlich wie Buflomidil (ein PDE4-Hemmer), Iloprostol (ein PhI-Analog) und monoklonale Antikörper gegen Selektine, d.h. N-Acetylhydroxyprolin verhinderte spezifisch die im Gefolge einer Noxe (Ischämie) auftretende Leukozytenadhäsion und -invasion ins Gewebe.

[3] = test system: Carrageenin-Pfotenödem, Adjuvansarthritis, Baumwollgranulom; test: Standard inflammation models (carrageenan paw oedema, adjuvant arthritis, cotton granuloma), histology; type: in vivo; conditions: short-term and long-term application; histological work-up
Blutplättchen = test: Ex vivo platelet function after oral intake; type: in vivo; conditions: volunteers, 400 - 800 mg
[4] = test system: Lymphozyten und Monozyten; test: Ex vivo adhesion of volunteers' lymphocytes and monocytes after oral intake; type: in vivo, Menschen; conditions: 400 - 800 mg
Granulozyten [5] = test: Ex vivo adhesion of volunteers' granulocytes to endothelia after oral intake; type: in vivo, Menschen
Text: Gesunde Probanden erhielten eine einmalige Dosis von N-Acetylhydroxyprolin zum Zeitpunkt 0. Unmittelbar vorher und zu den genannten Zeitpunkten wurde Blut abgenommen und die Leukozyten mit Hilfe der Lymphoprep-Separation (Histoprep, Biologische Arbeitsgemeinschaft GmbH, Lich, Germany) präpariert. Die Adhäsion wurde wie in M. Hahne et al. (1993), J . Cell Biol. 121, 655 - 664 beschrieben bestimmt. Die durch LPS-Stimulation erhöhte Adhäsion ist evident (⌀ im Vergieich zu LPS, Zeitpunkt ⌀).

Granulozyten [6] = test: Adhesion of granulocytes to an endothelial layer (method of Hahne et al. 1993); type: cell-based
Text: Gemäß M. Hahne et al. (1993), J. Cell. Biol. 121, 655-664 wurde die IC50-Konzentration von Hydroxyprolinderivaten, die zu einer 50 %igen Reduktion der Adhäsion von Granulozyten an einer Endothelschicht führte, bestimmt. Als besonders wirksam zeigte sich die an R2 acetylierte Verbindung.

[7] = ex vivo, volunteers, single or repeated intake of 400 - 800 mg

CC(=O)N1C[C@H](O)C[C@H]1C(=O)O [N-Acetylhydroxyprolin, N-Acetyl-L-hydroxyprolin]
Einwanderung von Granulozyten ([1]; late phase): signifikant reduziert | Einwanderung der eosinophilen Granulozyten ([1]; sensitised guinea pig, protein-induced): keinen meßbaren Effekt | Reduktion der Adhäsion der Leukozyten am ischämisch traumatisierten Gefäßendothel [2]: ca. 50% | Invasion der Granulozyten [3]: deutliche reduzierte Invasion | Invasion von monozytären Leukozyten [3]: kaum verändert | Funktion der Blutplättchen (Blutplättchen): nicht tangiert | Effekte auf Lymphozyten und Monozytenadhäsion [4]: verschwanden hingegen nach wenigen Stunden | Adhäsion der Granulozyten an Endothelien (Granulozyten [5]; [7]): reduzierte Adhäsion | Dauer des Effekts auf die Granulozytenadhäsion (Granulozyten [5]; [7]): 24 - 48 Stunden | durch LPS-Stimulation erhöhte Adhäsion (Granulozyten [5]; healthy volunteers, single dose at time 0, after 24 hours (Abb. 2)): weitgehend durch N-Acetylhydroxyprolin gehemmt | noch meßbar bei (Granulozyten [6]; concentration at which inhibition of granulocyte adhesion is still measurable, unit not given): 10^-9 | IC50 (Granulozyten [6]; concentration giving 50 % reduction of granulocyte adhesion to an endothelial layer, unit inferred): ~100 nM
